Laboratory results taken from US20240010653A1, “Crystalline Forms of 4-amino-N-[4-(methoxymethyl)phenyl]-7-(1-methylcyclopropyl)-6-(3-morpholinoprop-1-yn-1-yl)-7H-pyrrolo[2,3-d]pyrimidine-5-carboxamide” (Helsinn Healthcare SA, priority 2020, published 2024).
Counter-ions that a name gives are not always drawn.

Legend:
Format in all cases: physicochemical
[1] = Storage stability, accelerated conditions 40° C./75% relative humidity; settings: for HPLC assay (anhydrous) / HPLC purity: 12-HM06 / HPLC purity: impurity 12-HM06.il (RRT 0.92-.94) / HPLC purity: impurity RRT 0.56 / HPLC purity: impurity RRT 1.11 / HPLC purity: impurity RRT 1.20-1.24 / HPLC purity: impurity RRT 1.41-1.42 / Water content (KF) / XRPD: 40° C./75% relative humidity
Method: (§1) Samples of HM06 1:2 HCl Form 1 were subjected to accelerated storage conditions and long-term storage.
Samples of HM06 1:2 HCl Form 1 from the same lot were stored at 40° C. and 75% relative humidity for 24 months with testing at regular intervals.

[2] = Storage stability, long term conditions 25° C. and 60% relative humidity
Source text: as §1
Table 25 sets forth the sample analysis at times 0, 3 months, 6 months, 9 months, 12 months, 18 months, and 24 months.

[3] = Saturated solution in methanol; settings: room temperature
Method: A saturated solution of HM06 1:2 HCl Form 1 in methanol approx. 50 mg/mL was prepared and allowed to stir at room temperature overnight (18 hours). After this time, it was filtered and left to evaporate at 25° C./700 mbar. The preparation of the sample plate sealed with Kapton film was performed under 40-45% RH. Some very minor signals of Form 1 were present.

[4] = Uptake of water from air by dehydrated form, followed by VP-XRPD; settings: after vacuum 0.07 mbar; ambient condition, RH about 80%
Method: VP-XRPD measurements were performed on the Panalytical X'pert equipped with the Anton Paar TTK450 chamber which allowed for measurement of the powder in-situ at controlled temperature and/or under vacuum.
The first measurement was collected at RT and atmospheric pressure. The sample was then left for 15 minutes under vacuum (0.07 mbar).
The uptake of water by Form 1-bis was observed via XRPD by following the difference in the pattern in the range 2θ=25.5°-27-5° (see FIG. 5C). Under vacuum the highest peak is the peak at 2θ=26.7° while after exposure of the sample in air 2 minutes the highest is at 2θ=26.4°. The peak at 2θ=26.4° moves to 2θ=26.2° in 20 minutes. HM06 1:2 HCl crystalline Form 1-bis uptakes the water from the atmosphere as soon as the powder is exposed to the air, and it reaches the diffraction pattern of the starting material in 20 minutes (see […] 5D). This experiment was done in ambient condition with RH % of the room about at 80%.

[5] = Solid form (polymorph) stability on storage, followed by XRPD; settings: stored overnight at room temperature under 43% RH
Method: The stability of Form 4-bis was assessed after seven days of storage in a sealed vial.
HM06 1:2 HCl Form 4 exposed powder was stored overnight at room temperature under 43% RH.
The stability of the HM06 1:2 HCl Form 5-bis sample was assessed after 18 hours exposed to air and after one week in a sealed vial, both at room temperature.
Form 5-bis was measured after 18 hours exposed powder at room temperature. The % RH was approx. of 45%.
These changes could not be associated with conversion into one of the other isolated polymorphs observed during this study: thus, the sample was considered not stable.
HM06 1:2 HCl Form 5-bis was measured after seven days at room temperature in a sealed vial.
Form 6 was collected after evaporation of HM06 1:2 HCl Form 1 in a 1:1 acetonitrile/water solution at room temperature under low pressure.

COCc1ccc(NC(=O)c2c(C#CCN3CCOCC3)n(C3(C)CC3)c3ncnc(N)c23)cc1 [HM06 1:2 HCl Form 1, 4-amino-N-[4-(methoxymethyl)phenyl]-7-(1-methylcyclopropyl)-6-(3-morpholinoprop-1-yn-1-yl)-7H-pyrrolo[2,3-d]pyrimidine-5-carboxamide]
97%: HPLC assay (anhydrous) ([2]; 18 months)
remained stable and crystalline: Storage stability, overall result ([1]; accelerated storage conditions and long-term storage)
0.06%: HPLC purity: impurity RRT 1.41-1.42 ([1]; 0 months) | HPLC purity: impurity RRT 1.41-1.42 ([1]; 1 month) | HPLC purity: impurity RRT 1.41-1.42 ([1]; 3 months) | HPLC purity: impurity RRT 1.41-1.42 ([1]; 6 months) | HPLC purity: impurity RRT 1.41-1.42 ([2]; 0 months) | HPLC purity: impurity RRT 1.41-1.42 ([2]; 3 months) | HPLC purity: impurity RRT 1.41-1.42 ([2]; 6 months) | HPLC purity: impurity RRT 1.41-1.42 ([2]; 9 months) | HPLC purity: impurity RRT 1.41-1.42 ([2]; 12 months) | HPLC purity: impurity RRT 1.41-1.42 ([2]; 18 months) | HPLC purity: impurity RRT 0.85 ([2]; 24 months) | HPLC purity: impurity RRT 1.41-1.42 ([2]; 24 months)
approx. 50 mg/mL: Concentration of saturated solution in methanol [3]
5%: Water content (KF) ([1]; 3 months) | Water content (KF) ([1]; 6 months) | Water content (KF) ([2]; 3 months) | Water content (KF) ([2]; 6 months) | Water content (KF) ([2]; 9 months) | Water content (KF) ([2]; 18 months)
102%: HPLC assay (anhydrous) ([1]; 3 months) | HPLC assay (anhydrous) ([2]; 3 months)
not detected: HPLC purity: impurity RRT 0.56 ([1]; 0 months) | HPLC purity: impurity RRT 1.11 ([1]; 0 months) | HPLC purity: impurity RRT 0.56 ([1]; 1 month) | HPLC purity: impurity RRT 1.11 ([1]; 1 month) | HPLC purity: impurity RRT 0.56 ([1]; 3 months) | HPLC purity: impurity RRT 1.11 ([1]; 3 months)
100%: HPLC assay (anhydrous) ([1]; 1 month) | HPLC assay (anhydrous) ([2]; 24 months)
98%: HPLC assay (anhydrous) ([1]; 6 months)
0.51%: HPLC purity: impurity 12-HM06.il (RRT 0.92-.94) ([1]; 0 months) | HPLC purity: impurity 12-HM06.il (RRT 0.92-.94) ([1]; 1 month) | HPLC purity: impurity 12-HM06.il (RRT 0.92-.94) ([1]; 3 months) | HPLC purity: impurity 12-HM06.il (RRT 0.92-.94) ([1]; 6 months) | HPLC purity: impurity 12-HM06.il (RRT 0.92-0.94) ([2]; 0 months) | HPLC purity: impurity 12-HM06.il (RRT 0.92-0.94) ([2]; 3 months) | HPLC purity: impurity 12-HM06.il (RRT 0.92-0.94) ([2]; 6 months) | HPLC purity: impurity 12-HM06.il (RRT 0.92-0.94) ([2]; 9 months) | HPLC purity: impurity 12-HM06.il (RRT 0.92-0.94) ([2]; 12 months) | HPLC purity: impurity 12-HM06.il (RRT 0.92-0.94) ([2]; 18 months) | HPLC purity: impurity 12-HM06.il (RRT 0.92-0.94) ([2]; 24 months)
0.05%: HPLC purity: impurity RRT 0.56 ([1]; 6 months) | HPLC purity: impurity RRT 1.11 ([1]; 6 months) | HPLC purity: impurity RRT 0.85 ([2]; 18 months) | HPLC purity: impurity RRT 1.11 ([2]; 18 months)
Crystalline: XRPD ([1]; 0 months) | XRPD ([1]; 1 month) | XRPD ([1]; 3 months) | XRPD ([1]; 6 months) | XRPD ([2]; 0 months) | XRPD ([2]; 3 months) | XRPD ([2]; 6 months) | XRPD ([2]; 9 months) | XRPD ([2]; 12 months) | XRPD ([2]; 18 months) | XRPD ([2]; 24 months)
6%: Water content (KF) ([1]; 0 months) | Water content (KF) ([1]; 1 month) | Water content (KF) ([2]; 0 months) | Water content (KF) ([2]; 12 months) | Water content (KF) ([2]; 24 months)
0.20%: HPLC purity: impurity RRT 1.20-1.24 ([1]; 0 months) | HPLC purity: impurity RRT 1.20-1.24 ([1]; 1 month) | HPLC purity: impurity RRT 1.20-1.24 ([1]; 3 months) | HPLC purity: impurity RRT 1.20-1.24 ([2]; 0 months) | HPLC purity: impurity RRT 1.20-1.24 ([2]; 3 months) | HPLC purity: impurity RRT 1.20-1.24 ([2]; 6 months) | HPLC purity: impurity RRT 1.20-1.24 ([2]; 9 months) | HPLC purity: impurity RRT 1.20-1.24 ([2]; 12 months)
99%: HPLC assay (anhydrous) ([1]; 0 months) | HPLC purity: 12-HM06 ([1]; 0 months) | HPLC purity: 12-HM06 ([1]; 1 month) | HPLC purity: 12-HM06 ([1]; 3 months) | HPLC purity: 12-HM06 ([1]; 6 months) | HPLC assay (anhydrous) ([2]; 0 months) | HPLC purity: 12-HM06 ([2]; 0 months) | HPLC purity: 12-HM06 ([2]; 3 months) | HPLC assay (anhydrous) ([2]; 6 months) | HPLC purity: 12-HM06 ([2]; 6 months) | HPLC assay (anhydrous) ([2]; 9 months) | HPLC purity: 12-HM06 ([2]; 9 months) | HPLC assay (anhydrous) ([2]; 12 months) | HPLC purity: 12-HM06 ([2]; 12 months) | HPLC purity: 12-HM06 ([2]; 18 months) | HPLC purity: 12-HM06 ([2]; 24 months)
0.19%: HPLC purity: impurity RRT 1.20-1.24 ([1]; 6 months) | HPLC purity: impurity RRT 1.20-1.24 ([2]; 18 months) | HPLC purity: impurity RRT 1.20-1.24 ([2]; 24 months)

COCc1ccc(NC(=O)c2c(C#CCN3CCOCC3)n(C3(C)CC3)c3ncnc(N)c23)cc1 [HM06 1:2 HCl Form 1-bis, 4-amino-N-[4-(methoxymethyl)phenyl]-7-(1-methylcyclopropyl)-6-(3-morpholinoprop-1-yn-1-yl)-7H-pyrrolo[2,3-d]pyrimidine-5-carboxamide]
20 min: Time in air to reach the diffraction pattern of the starting material (Form 1) by uptake of water [4]

COCc1ccc(NC(=O)c2c(C#CCN3CCOCC3)n(C3(C)CC3)c3ncnc(N)c23)cc1 [HM06 1:2 HCl Form 4, 4-amino-N-[4-(methoxymethyl)phenyl]-7-(1-methylcyclopropyl)-6-(3-morpholinoprop-1-yn-1-yl)-7H-pyrrolo[2,3-d]pyrimidine-5-carboxamide]
No significant modifications: Form stability (XRPD) of exposed powder [5]
